Results taken from PubChem BioAssay AID330 (DTP/NCI, 2004).
Values joined by “and” are separate entries in the source; they are usually repeats but may differ in a detail not shown here. Equal values may be shown once. Toxic doses and inconclusive results are not listed. Rule for the calls: active = survival T/C of 150% or more; inactive = T/C below 125% in these data.

Tested on: P388 leukemia ip, CD2F1 mice, survival T/C
Assay: NCI In Vivo Anticancer Drug Screen. Data for tumor model P388 Leukemia (intraperitoneal) in CD2F1 (CDF1) mice
Details: endpoint: median survival time, higher = longer survival
Summary of the method: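 Mice carrying the transplanted tumor received test compound or vehicle. Survival was recorded in each group, and the value is the treated-group measurement divided by that of the vehicle-treated control group.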

[1] = dose: 50.0 mg/kg/injection, schedule: Q01DX005 (ip), vehicle: saline with Tween-80
[2] = dose: 100.0 mg/kg/injection, schedule: Q01DX005 (ip), vehicle: saline with Tween-80
[3] = dose: 200.0 mg/kg/injection, schedule: Q01DX005 (ip), vehicle: saline with Tween-80
[4] = dose: 50.0 mg/kg/injection, schedule: Q01DX005 (ip), vehicle: Klucel (hydroxypropylcellulose) (HPC)
[5] = dose: 100.0 mg/kg/injection, schedule: Q01DX005 (ip), vehicle: Klucel (hydroxypropylcellulose) (HPC)
[6] = dose: 200.0 mg/kg/injection, schedule: Q01DX005 (ip), vehicle: Klucel (hydroxypropylcellulose) (HPC)
[7] = dose: 100.0 mg/kg/injection, schedule: Q04DX003 (ip), vehicle: saline

Measured: T/C

COC(=O)CC(OC)c1nc(C(=O)OC)c(C)c(=O)[nH]1 (configuration not stated)
inactive: dose: 4.0 mg/kg/injection, schedule: Q01DX009 (ip), vehicle: water 111 % of control | dose: 8.0 mg/kg/injection, schedule: Q01DX009 (ip), vehicle: water 101 % of control | dose: 16.0 mg/kg/injection, schedule: Q01DX009 (ip), vehicle: water 96 % of control | dose: 32.0 mg/kg/injection, schedule: Q01DX009 (ip), vehicle: water 99 % of control | dose: 64.0 mg/kg/injection, schedule: Q01DX009 (ip), vehicle: water 102 % of control | dose: 128.0 mg/kg/injection, schedule: Q01DX009 (ip), vehicle: water 105 % of control

O=[N+]([O-])c1cc2no[n+]([O-])c2cc1N1CCCCC1
inactive: dose: 3.75 mg/kg/injection, schedule: Q01DX009 (ip), vehicle: saline 97 % of control | dose: 3.75 mg/kg/injection, schedule: Q01DX009 (ip), vehicle: suspension in saline 94 % of control | dose: 7.5 mg/kg/injection, schedule: Q01DX009 (ip), vehicle: saline 114 % of control | dose: 7.5 mg/kg/injection, schedule: Q01DX009 (ip), vehicle: suspension in saline 103 % of control | dose: 15.0 mg/kg/injection, schedule: Q01DX009 (ip), vehicle: saline 101 % of control | dose: 15.0 mg/kg/injection, schedule: Q01DX009 (ip), vehicle: suspension in saline 103 % of control | dose: 30.0 mg/kg/injection, schedule: Q01DX009 (ip), vehicle: saline 108 % of control | dose: 30.0 mg/kg/injection, schedule: Q01DX009 (ip), vehicle: suspension in saline 122 % of control

CCSc1nc(N)c(Br)c(Sc2nc(N)nc3nc[nH]c23)n1
inactive: [1] 103 % of control | [2] 101 % of control | [3] 97 % of control

CC(=O)OC[N+]1(C)CCCCC1
inactive: dose: 50.0 mg/kg/injection, schedule: Q01DX009 (ip), vehicle: saline with Tween-80 111 % of control | dose: 100.0 mg/kg/injection, schedule: Q01DX009 (ip), vehicle: saline with Tween-80 106 % of control | dose: 200.0 mg/kg/injection, schedule: Q01DX009 (ip), vehicle: saline with Tween-80 116 % of control

CC(C)(C)CC(C)(C)c1ccc(OCCOc2ccc(C(=O)O)cc2)cc1
inactive: dose: 100.0 mg/kg/injection, schedule: Q01DX001 (ip), vehicle: saline sonified 105 % of control | dose: 200.0 mg/kg/injection, schedule: Q01DX001 (ip), vehicle: saline sonified 110 % of control | dose: 400.0 mg/kg/injection, schedule: Q01DX001 (ip), vehicle: saline sonified 110 % of control

NC(=S)N=Nc1c(O)n(C2OC(CO)C(O)C(O)C2O)c2ccccc12 (configuration not stated)
inactive: dose: 32.0 mg/kg/injection, schedule: Q01DX002 (ip), vehicle: saline with Tween-80 109 % of control and 112 % of control | dose: 64.0 mg/kg/injection, schedule: Q01DX002 (ip), vehicle: saline with Tween-80 114 % of control and 116 % of control | dose: 128.0 mg/kg/injection, schedule: Q01DX002 (ip), vehicle: saline with Tween-80 98 % of control and 90 % of control

CCCCC(=O)CCCCCCCCC(O)CC(=O)OCC (configuration not stated)
inactive: dose: 100.0 mg/kg/injection, schedule: Q04DX003 (ip), vehicle: Klucel (hydroxypropylcellulose) (HPC) 100 % of control | dose: 200.0 mg/kg/injection, schedule: Q04DX003 (ip), vehicle: Klucel (hydroxypropylcellulose) (HPC) 103 % of control | dose: 400.0 mg/kg/injection, schedule: Q04DX003 (ip), vehicle: Klucel (hydroxypropylcellulose) (HPC) 102 % of control

Cc1cc(NC(=O)C(=O)CC(=O)c2cccnc2)no1
inactive: [1] 102 % of control | [2] 101 % of control | [3] 101 % of control

c1ccc2c(c1)CCc1c(-c3ccncc3)n[nH]c1-2
inactive: dose: 12.5 mg/kg/injection, schedule: Q01DX009 (ip), vehicle: other 108 % of control | dose: 25.0 mg/kg/injection, schedule: Q01DX009 (ip), vehicle: other 123 % of control | dose: 50.0 mg/kg/injection, schedule: Q01DX009 (ip), vehicle: other 106 % of control | dose: 100.0 mg/kg/injection, schedule: Q01DX009 (ip), vehicle: other 104 % of control | dose: 200.0 mg/kg/injection, schedule: Q01DX009 (ip), vehicle: other 100 % of control

CN(C)CCC(=O)c1ccc(O)cc1
inactive: dose: 50.0 mg/kg/injection, schedule: Q01DX009 (ip), vehicle: saline 98 % of control | dose: 100.0 mg/kg/injection, schedule: Q01DX009 (ip), vehicle: saline 105 % of control | dose: 200.0 mg/kg/injection, schedule: Q01DX009 (ip), vehicle: saline 106 % of control

CC(C)(C)OC(=O)C1CCON1C1OC(C(O)CO)C2OC(C)(C)OC21 (configuration not stated)
inactive: [4] 100 % of control | [5] 100 % of control and 98 % of control | [6] 95 % of control and 104 % of control

CCN=C(Cl)N(C)c1ccccc1
inactive: dose: 50.0 mg/kg/injection, schedule: Q01DX009 (ip), vehicle: Klucel (hydroxypropylcellulose) (HPC) 100 % of control | dose: 100.0 mg/kg/injection, schedule: Q01DX009 (ip), vehicle: Klucel (hydroxypropylcellulose) (HPC) 95 % of control

Cn1c(=O)c2c(nc(Br)n2CC(=O)c2ccc([N+](=O)[O-])cc2)n(C)c1=O
inactive: [7] 95 % of control | dose: 200.0 mg/kg/injection, schedule: Q04DX003 (ip), vehicle: saline 96 % of control | dose: 400.0 mg/kg/injection, schedule: Q04DX003 (ip), vehicle: saline 99 % of control

CCCCN(CCCC)CNC(=O)c1ccccc1
inactive: [1] 97 % of control | [2] 100 % of control

CC(=O)Nc1ccc(C(C)C)cc1N
inactive: [4] 100 % of control | [5] 101 % of control | [6] 107 % of control

COc1cc(C(O)(CCN2CCCCC2)c2ccc3c(c2)OCO3)cc(OC)c1OC (configuration not stated)
inactive: dose: 50.0 mg/kg/injection, schedule: Q01DX005 (ip), vehicle: saline + Tween-80 + alcohol 94 % of control | dose: 100.0 mg/kg/injection, schedule: Q01DX005 (ip), vehicle: saline + Tween-80 + alcohol 100 % of control | dose: 200.0 mg/kg/injection, schedule: Q01DX005 (ip), vehicle: saline + Tween-80 + alcohol 93 % of control

CCCCCCC[CH2][Sn]([F])([F])[CH2]CCCCCCC
inactive: dose: 12.5 mg/kg/injection, schedule: Q04DX003 (ip), vehicle: saline 102 % of control | dose: 25.0 mg/kg/injection, schedule: Q04DX003 (ip), vehicle: saline 106 % of control and 108 % of control | dose: 50.0 mg/kg/injection, schedule: Q04DX003 (ip), vehicle: saline 106 % of control and 116 % of control | [7] 101 % of control and 109 % of control and 121 % of control

[CH3][Sn]([CH3])([Cl])[CH2]CC[CH2][Sn]([CH3])([Cl])[Cl]
inactive: dose: 0.78 mg/kg/injection, schedule: Q01DX009 (ip), vehicle: saline 99 % of control | dose: 1.56 mg/kg/injection, schedule: Q01DX009 (ip), vehicle: saline 89 % of control | dose: 3.12 mg/kg/injection, schedule: Q01DX009 (ip), vehicle: saline 89 % of control

C[C](C)(C)[Ge]([O][Ge]([c]1ccccc1)[c]1ccccc1)([O][Ge]([c]1ccccc1)[c]1ccccc1)[C](C)(C)C
inactive: dose: 15.0 mg/kg/injection, schedule: Q01DX005 (ip), vehicle: saline with Tween-80 103 % of control | dose: 30.0 mg/kg/injection, schedule: Q01DX005 (ip), vehicle: saline with Tween-80 103 % of control | dose: 60.0 mg/kg/injection, schedule: Q01DX005 (ip), vehicle: saline with Tween-80 110 % of control and 117 % of control | dose: 120.0 mg/kg/injection, schedule: Q01DX005 (ip), vehicle: saline with Tween-80 117 % of control
